Experiments:
PBCEC = details: cited from earlier work
PBCEC monolayer = experiment: Lucifer yellow permeability through PBCEC monolayer; type: in vitro ADME, porcine
Method: Before starting each experiment, the TEER values and the electrical capacitance of all cell layers were measured via cellular impedance spectroscopy (cellZscope®, nanoAnalytics, Münster, Germany). […] TEER values relate to the constitution of the tight junctions limiting paracellular transfer of compounds. In addition to the TEER, electrical capacitances (CCl) were monitored for 48 h. Cellular phospholipid bilayers act like an electrical capacitor and also contribute to the cellular impedance. Changes of the CCl value give information about the integrity of the cell monolayer. In this experiment, a parallel set up was applied. For each treatment, one triplicate of filters was monitored via cellular impedance spectroscopy over the course of 48 h using a cellZscope® device–here, the basolateral compartment was prepared with 1650 μL serum free medium and the volume in the apical compartment was filled to 760 μL (ratio 1:2.17). Another triplicate for the same incubation conditions was kept in Transwell® filter cell culture multiple well plates (12 well format) over the course of 48 h. In the multiple well plates the ratio between the apical and the basolateral compartment was 1:3, therefore the starting volume in the apical compartment is 500 μL and 1500 μL in the basolateral compartment. Here, samples for quantitation of transfer of enniatins across the barrier were drawn after 1, 2.5, 6.5, 18, 24, 28, 42 and 48 hours in this given ratio i.e. 30 μL apical and 90 μL basolateral. After 48 h, the final TEER values of the filters from the multiple well plate were measured to ensure the stability of the cell layer throughout the experiment. To double check the integrity of the barrier, lucifer yellow (LY, 50 μM), as a paracellular transfer marker, was applied. The amount of LY found in the basolateral compartment after 1 h was measured at λex = 430 nm and λ em = 540 nm.
After completion of each transport experiment, both active and passive, lucifer yellow (LY) was applied in 50 μM concentration in the apical compartments. Samples were drawn after 1 h and the amount of LY in the basolateral compartment was quantitated via external calibration. The permeability coefficients for LY through cells treated with the solvent control (ACN 0.1% and 0.02%) and through cells treated with the test compounds for the past 48 h were calculated (Table 2). The permeability coefficients range in the same order of magnitude for test substance treated cells and cells incubated with solvent, which is considerably lower than the permeability coefficients derived for ENN B and ENN B1 and indicates an intact and tight monolayer with low paracellular transfer of compounds.

Cn1c(=O)c2c(ncn2C)n(C)c1=O [caffeine]
Papp (PBCEC): 15.5 ×10⁻⁶ cm/s

lucifer yellow [LY]
Permeability coefficient of LY (PBCEC monolayer; after 48 h treatment with 200 nM ENN B1 in both compartments (active)): 0.9 10^−6 cm/s | Permeability coefficient of LY (PBCEC monolayer; after 48 h treatment with 200 nM ENN B in both compartments (active)): 0.7 10^−6 cm/s | Permeability coefficient of LY (PBCEC monolayer; after 48 h treatment with 1 μM ENN B1 apically (passive)): 2.2 10^−6 cm/s | Permeability coefficient of LY (PBCEC monolayer; after 48 h treatment with 1 μM ENN B apically (passive)): 1.9 10^−6 cm/s | Permeability coefficient of LY (PBCEC monolayer; solvent control ACN 0.02%): 0.2 10^−6 cm/s | Permeability coefficient of LY (PBCEC monolayer; solvent control ACN 0.1%): 3.2 10^−6 cm/s
